Results from US8378117B2 (priority 2005, dated 2013).

What was measured:
Male CD-1 mice [1] = experiment: Postoperative inflammatory ileus, microscopic myeloperoxidase histological examination; type: in vivo; conditions: Surgical Manipulation, dose 1 mg/kg, 24 hr post-laparotomy, mean ± SE
Description: (§1) Male CD-1 mice were anesthetized by inhaled isoflurane and prepared for surgery. The abdomen was shaved of hair and treated with antiseptic solution. The animal was then covered with a surgical drape, leaving the abdomen exposed. A mid-line laparotomy was performed, and the entire small intestine was exteriorized onto the sterile drape. Using two moistened, sterile, cotton-tipped applicators, the small intestine was then gently compressed along its length from the ligament of Treitz to the ileo-cecal junction. The small intestine was then returned to the abdominal cavity and the incision closed by two layers of sutures.
(§2) Age-matched mice were randomly assigned to groups (6 animals per group) and injected intraperitoneally (i.p.) with “vehicle” (a mixture of 5% ethanol/5% Tween80/90% of 5% dextran in water w/v) containing various doses of a test compound 1 hr prior to laparotomy. The second group was injected intraperitoneally with vehicle. The third group was administered intragastrically (1 mg/kg) a mixture (1 mg/mL) of dexamethasone in 20% hydroxypropyl methyl dextran in water, once per day for two days prior to surgery and 5 hrs post-laparotomy. The fourth group received no intervention and served as naïve controls.
Microscopic histological examination was performed on harvested tissues 24 hr post-laparotomy. […] Hanker-Yates reagent (Polysciences Inc.) forms an insoluble, blue-black polymer in the presence of hydrogen peroxide and peroxidase enzyme activity. Segments of mid small bowel were collected from the centrifuge tubes described in the previous section. Whole mounts of the muscle layer were prepared by opening the tube of bowel along the mesenteric border and pinning the tissue flat in a Sylgard™ lined Petri dish with the mucosal surface facing upward. The tissue was stretched to 1.5 times its length and 2.5 times its width, and the mucosa removed by fine dissection. The remaining muscularis whole mounts were then fixed with 100% ethanol for 45 min, washed 3 times with PBS, and incubated for 20 min in PBS containing 0.1% hydrogen peroxide and 1 mg/ml Hanker-Yates reagent (Polysciences, Inc). The reagent is polymerized in the presence of hydrogen peroxide and peroxidase activity to form a blue-black deposit. Following a second wash with PBS, the whole mounts were mounted on glass slides, cover-slipped, and viewed on an optical microscope. Myeloperoxidase containing leukocytes were counted in 6 to 8 adjacent 200× optical fields, and the mean cell counts were calculated and recorded.
The presence of myeloperoxidase (MPO) positive immune cells in the intestinal muscularis is rare in normal animals.

Male CD-1 mice [2] = experiment: Postoperative inflammatory ileus, upper gastrointestinal transit (FITC-dextran, Geometric Center); type: in vivo; conditions: Surgical Manipulation, dose 1 mg/kg, 24 hr post-laparotomy, mean ± SE; scale 1 to 15
Description: as §1, §2
Upper gastrointestinal transit was measured 24 hr post-laparotomy. Mice were fed a test meal consisting of 150 μL of FITC-dextran solution (5 mg/mL of 70,000 molecular weight dextran conjugated to fluorescein-isothiocyanate in 0.5% hydroxypropyl methylcellulose/deionized water) administered intragastrically by an 18 gauge feeding tube. Following oral administration of the FITC-dextran test meal, animals were returned to their home cages. Following a 45 min test period, mice were euthanized by isoflurane overdose and exsanguination. The entire gastrointestinal tract from the lower esophageal sphincter to the terminal colon was removed. The bowel segments were opened along the mesenteric border. The tissue and luminal contents of the stomach, 10 equal segments of small intestine, the cecum, and 3 equal segments of colon were placed in individual Eppendorf tubes containing 1 ml of PBS. The tissue was vigorously mixed on a tabletop vortex, and solid materials were pelletized by centrifugation. Aliquots of the cleared supernatant were read in duplicate on a 96-well fluorescence plate reader to quantify the magnitude of the fluorescent signal in each segment of bowel.
These values were used to calculate the Geometric Center (REF), which is defined as the weighted average distribution of the fluorescent signal along the gastrointestinal tract: GC=Σ(% of total fluorescent signal per segment×segment number)/100,
Higher GC values represent faster rates of transit on scale of 1 to 15.
Surgical manipulation of the small bowel leads to a significant delay in gastrointestinal transit, going from a Geometric Center of 8.4 in normal mice to 3.3 in vehicle treated animals.

CB2 receptor [3] = target: T1, CB2 receptor (Homo sapiens, UniProt P34972); experiment: Modified functional cell-based assay (Beta-Glo luminescence), CB2 receptor; conditions: CB2 EC50 (Receptor Functional Activity), one sample per compound, Cpd 237 n=3
T1 construct: expressed in transfected cells
Description: (§3) Additional functional activity studies were performed with minor modifications. Beta galactosidase activity was quantified using the luminescent Beta-Glo Assay System (Promega Corp. Madison, Wis.) and an Orion Microplate Luminometer (Berthold Detection Systems, Oak Ridge, Tenn.). The EC50 values were calculated using GraphPad Prism and a four parameter logistic equation.
(§4) The functional activity EC50 value for compounds tested (shown in Table 8) were obtained from studies in which varying compound concentrations were used. With the exception of Cpd 237 (n=3), one sample for each compound was tested.

CB2 receptor [4] = target: T1, CB2 receptor; experiment: Binding assay for CB2 agonists or inverse agonists (SK-N-MC membranes, [3H]-CP-55,940)
Summary of the method: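 IC50 came from percent-inhibition data over several compound concentrations, fitted by linear regression. Binding used semi-purified membranes of human CB2-transfected SK-N-MC cells, 90 min at 30 °C, pH 7.5 Tris-HCl with MgCl2, EDTA and BSA, then filtration and scintillation counting.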

CB1 receptor [5] = target: T2, CB1 receptor (Homo sapiens, UniProt P21554); experiment: Modified functional cell-based assay (Beta-Glo luminescence), CB1 receptor; conditions: CB1 EC50 (Receptor Functional Activity), one sample per compound, Cpd 237 n=3
T2 construct: expressed in transfected cells
Description: as §3, §4

CB1 receptor [6] = target: T2, CB1 receptor; experiment: Binding assay for CB1 agonists or inverse agonists (SK-N-MC membranes, [3H]-CP-55,940)
Summary of the method: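 Radioligand displacement: [3H]-CP-55,940 at […], 90 min at 30° C, pH 7.5 Tris buffer with 0.5 mg/mL fatty-acid-free BSA, using semi-purified membranes of human-CB1-transfected SK-N-MC cells. Bound counts collected on GF/C filters, 10 uM WIN 55,212 for non-specific; IC50 from percent inhibition over several concentrations.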

CB1 receptor [7] = target: T2, CB1 receptor; experiment: Modified binding assay, CB1 receptor in CHO cells, [3H]CP 55940; conditions: [3H]CP 55940 0.5 nM, 120 minutes at 37° C.
Description: (§5) Additional receptor binding studies were performed with minor modifications as detailed below.
(§6) The human CB1 and CB2 receptors were stably expressed in CHO cells as described in Rinaldi-Carmona, M., Calandra, B., Shire, D., Bouaboula, M., Oustric, D., Barth, F., Casellas, P., Ferrara, P. and Le Fur, G. (1996) J. PharmacoL Exp. Ther., 278: 871-878 and Munro, S., Thomas, K. L. and Abu-Shaar, M. (1993) Nature, 365: 61-65, respectively. [^3H]CP 55940 (0.5 nM) was used as the radioligand for the CB1 receptor binding assay. [^3H]WIN 55212 (0.8 nM) was used as the radioligand for the CB2 receptor binding assay. Incubation was carried out for 120 minutes at 37° C.
(§7) The specific ligand binding to the receptors is defined as the difference between the total binding and the nonspecific binding determined in the presence of an excess of unlabelled ligand. The results are expressed as a percent of control specific binding ((measured specific binding/control specific binding)×100) obtained in the presence of the test compounds.
(§8) The IC50 values (concentration causing a half-maximal inhibition of control specific binding) were determined by non-linear regression analysis of the competition curves generated with mean replicate values using Hill equation curve fitting (where Y=specific binding, D=minimum specific binding, A=maximum specific binding, C=compound concentration, C50=IC50 and nH=slope factor): (Y=D+[(A−D)/(1+(C/C50)^nH)] CB1 and CB2 Receptor Binding Results
(§9) For compounds tested, an IC50 binding value was obtained from percent inhibition studies in which various test concentrations were used.

CB2 receptor [8] = target: T1, CB2 receptor; experiment: Modified binding assay, CB2 receptor in CHO cells, [3H]WIN 55212; conditions: [3H]WIN 55212 0.8 nM, 120 minutes at 37° C.
Description: as §5, §6, §7, §8, §9

[9] = test concentration 0.2 μM (footnote 2), 0.2 µM

T1 sequence (P34972 whole entry): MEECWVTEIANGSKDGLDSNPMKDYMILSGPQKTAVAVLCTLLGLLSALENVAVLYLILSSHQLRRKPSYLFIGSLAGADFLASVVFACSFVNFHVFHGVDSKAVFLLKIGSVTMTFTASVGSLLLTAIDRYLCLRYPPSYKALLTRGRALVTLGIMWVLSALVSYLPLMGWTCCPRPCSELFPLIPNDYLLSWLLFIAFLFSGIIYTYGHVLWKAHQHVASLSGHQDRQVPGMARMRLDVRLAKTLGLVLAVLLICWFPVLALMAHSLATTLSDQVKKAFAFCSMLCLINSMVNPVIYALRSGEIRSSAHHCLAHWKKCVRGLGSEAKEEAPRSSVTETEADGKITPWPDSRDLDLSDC
T2 sequence (P21554 whole entry): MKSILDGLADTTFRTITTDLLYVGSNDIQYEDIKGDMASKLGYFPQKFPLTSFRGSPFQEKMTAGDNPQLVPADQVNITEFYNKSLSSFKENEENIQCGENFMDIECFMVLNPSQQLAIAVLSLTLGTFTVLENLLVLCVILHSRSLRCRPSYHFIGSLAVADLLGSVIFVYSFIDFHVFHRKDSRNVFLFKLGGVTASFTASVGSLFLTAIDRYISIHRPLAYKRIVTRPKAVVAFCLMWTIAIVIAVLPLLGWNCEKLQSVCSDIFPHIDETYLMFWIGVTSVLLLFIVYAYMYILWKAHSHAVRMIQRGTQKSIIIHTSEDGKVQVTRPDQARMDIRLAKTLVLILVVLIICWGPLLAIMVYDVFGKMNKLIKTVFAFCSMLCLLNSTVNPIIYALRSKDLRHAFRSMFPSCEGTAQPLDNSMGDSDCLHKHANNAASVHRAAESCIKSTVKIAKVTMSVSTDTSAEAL

`C[C@@H]1C[C@H]2[C@@H]3CCC4=CC(=O)C=C[C@]4(C)[C@@]3(F)[C@@H](O)C[C@]2(C)[C@@]1(O)C(=O)CO` [dexamethasone, reference compound] was tested, and the “MPO-Positive Cells (Per 200× Optical Field)” value (Male CD-1 mice [1]) was 29.8 ± 3.9 and the “Geometric Center (upper gastrointestinal transit)” value (Male CD-1 mice [2]) was 6.0 ± 0.14.
For `C[C@H](NS(=O)(=O)/C=C/c1n[nH]c2c1CCCCC2Cc1cccc(F)c1)c1ccccc1` (single isomer, unassigned) [Cpd 233, (2E)-2-[(8S*)-8-(3-fluoro-benzyl)-1,4,5,6,7,8-hexahydro-cycloheptapyrazol-3-yl]-ethenesulfonic acid [(1S)-1-phenyl-ethyl]-amide], the EC50 (CB2 receptor [3]) was roughly 1300 nM, the “CB2 receptor binding percent inhibition” value (CB2 receptor [4]; [9]) was “^(2)20%” and the EC50 (CB1 receptor [5]) was roughly 4400 nM. For the same molecule, the “CB1 receptor binding percent inhibition” value (CB1 receptor [6]; [9]) was “^(2)0%”.
`O=C(N[C@H](CO)c1ccccc1)c1n[nH]c2c1CCCCC2Cc1cccc(Cl)c1` (stereo partly drawn) [Cpd 164, 8-(3-chloro-benzyl)-1,4,5,6,7,8-hexahydro-cycloheptapyrazole-3-carboxylic acid [(1S)-2-hydroxy-1-phenyl-ethyl]-amide] was tested, and the EC50 (CB2 receptor [3]) was 25 nM, the IC50 (CB1 receptor [7]) was 870 nM and the inhibition at 0.2 µM (CB2 receptor [4]; read-out: CB2 receptor binding percent inhibition, test concentration 0.2 μM (footnote 2)) was 94%. It also gave an EC50 (CB1 receptor [5]) greater than 1000 nM, an IC50 (CB2 receptor [8]) of 230 nM and an inhibition at 0.2 µM (CB1 receptor [6]; read-out: CB1 receptor binding percent inhibition, test concentration 0.2 μM (footnote 2)) of 26%.
